Assay results as given in US11820782B2, “Salt forms of amino pyrazine purine based selective kinase inhibitor” (FTG BIO LLC, priority 2018, dated 2023).
In brackets after ≈: the same amount, converted by molar mass. Read-outs that look alike come from different tables or passages of the source.

How the values were obtained:
[1] = Qualitative (kinetic/visual) solubility in solvents/media; assay type: physicochemical
Procedure: 2 mg quantity of API was taken in glass vial and small portions of solvent was added with vortexing till the clear solution is obtained (at room temperature or heating up to 50-60° C.).
Weighed quantity of API was taken in glass vial and small portions of solvent was added with vortexing till the clear solution is obtained (at room temperature or heating up to 50-60° C.).

[2] = pH vs solubility study (RP-HPLC); assay type: physicochemical
Procedure: In 2 mL volume of buffers (ranging from pH 1.2 to 7.4) and purified water, compound (either free base or esylate or oxalate) was added with increments until the compound doesn't dissolve further in the medium and compound remains undissolved or excess in the solution. The samples were kept for overnight at ambient room temperature to saturate/equilibrate. The dispersions were filtered through 0.45 μm PVDF or nylon membrane filters and the filtrates were analysed using RP-HPLC for determination of solubility of compounds in various buffers and purified water.

[3] = Hygroscopicity (dynamic vapor sorption); assay type: physicochemical; settings: normal room temperature / ambient conditions
Procedure: Sorption isotherms were obtained using a VTI-SA+-moisture sorption analyzer from TA instruments. The sample temperature was maintained at 25° C. by the instrument controls. The humidity was controlled by mixing the streams of dry and wet nitrogen, with a total flow rate of 200 mL/minute. The weight change of the sample as a function of % RH was constantly monitored by microbalance.
Typically, 5 to 20 mg of the sample was weighed under ambient conditions in a tared mesh stainless steel basket. The sample was loaded and unloaded at 40% RH and 25° C. A moisture sorption isotherm was performed as outlined. The standard isotherm was performed at 25° C. at 10% RH intervals over a 0 to 90% RH range. Sample was dried at 40° C. from ambient room conditions to 0% RH.

[4] = Intravenous and per oral pharmacokinetics in male Balb/c mice; assay type: in vivo; settings: for Bioavailability (% F): PO dose (50 mg/kg) vs IV 10 mg/kg
Procedure: The husbandry conditions were maintained as described in animal facility SOPs during the study period. Animals procured were quarantined for 7 days followed by acclimatization for 5 days. The study was carried out for two days. Male Balb/c mice of age 10-12 weeks (18-25 g) and male Sprague Dawley rats 8-10 weeks (220-280 g) were used. The food was with held for a period of 4-12 hr prior to dosing and returned to all animals 4h post dosing and water supplied ad libitum. The doses of FT1518 were as follows: Mice: 10 mg/kg intravenous (i.v) and 50 mg/kg oral (p.o); rat—5 mg/kg intravenous (i.v) and 10 mg/kg oral (p.o). The formulation used in i.v and p.o studies were 10% dimethylsulfoxide (DMSO)+30% polyethyleneglycol 400 (PEG400)+60% water and 0.5% methylcellulose (MC)+0.1% tween 80. Blood was collected at the predetermined time points in mice (cardiac puncture) and Jugular vein (rats) over a period of 24h in eppendorf tubes containing K2EDTA as anticoagulant. The plasma was isolated from the blood and stored at −80° C. until bioanalysis. Species: BALB/C mice Gender: Male Dose: IV (10 mg/kg), Single dose • PO (50 mg/kg), single dose Formulation: • IV—DMSO: PEG400:Water (10:30:60 v/v) • PO— 0.5% methylcellulose and 0.1% Tween 80 in water Sampling Time Points: • IV: 5 min, 30 min, 1 h, 2, 4, 8 and 24 h post dose • PO: 10 min, 30 min, 1 h, 2, 4, 8 and 24 h post dose. PK analysis: Phoenix software (Pharsight product). Noncompartmental Analysis (NCA) was used to estimate the PK parameters. FIG. 56 depicts a pharmacokinetic profile of FT-1518 base in mice. Table 31 summarizes PK parameters used in a pharmacokinetic profile with intravenous dose in mice and Table 32 summarizes PK parameters used in a pharmacokinetic profile with per oral dose in mice.

[5] = Microsomal stability, MLM; assay type: in vitro ADME; settings: 3 μM (n = 3), mice liver microsomes
Procedure: (§1) All in vitro experiments like protein binding, microsomal stability, cell cytotoxicity were performed as per study protocols of respective experiments.

[6] = Microsomal stability, PHLM; assay type: in vitro ADME; settings: pooled human liver microsomes
Procedure: as §1

[7] = Microsomal stability, RLM; assay type: in vitro ADME; settings: rat liver microsomes
Procedure: as §1

Mouse plasma = assay: Plasma protein binding, mouse; assay type: in vitro ADME
Procedure: as §1

[8] = system: MDA-MB-231 (breast cancer); assay: Anti-proliferative effect, MDA-MB-231; assay type: cell-based
Procedure: as §1

[9] = system: U-87 (giloblastoma, epithelial); assay: Anti-proliferative effect, U-87; assay type: cell-based
Procedure: as §1

[10] = male, Balb/c, mouse, plasma, po, 50 mg/kg, PO dose (50 mg/kg), single dose, male Balb/c mice
[11] = PO dose (50 mg/kg), single dose, male Balb/c mice, 50 mg/kg

## CCC(CC)n1cnc2c(-c3cnc(N)cn3)nc(N3CC4CCC(C3)O4)nc21 [FT-1518-Esylate]
[1]; N-methyl pyrrolidone, organic solvent or mixture, thermodynamic from solid, N-methyl pyrrolidone, read-out: Solubility
  Solubility: > 100 mg/mL
[1]; Tetrahydrofuran
  Solubility: <1 mg/mL
[1]; acetone, organic solvent or mixture, thermodynamic from solid, Acetone, read-out: Solubility
  Solubility: < 1 mg/mL
[1]; acetonitrile, organic solvent or mixture, thermodynamic from solid, Acetonitrile, read-out: Solubility
  Solubility: > 100 mg/mL
[1]; dimethyl sulphoxide, organic solvent or mixture, thermodynamic from solid, Dimethyl sulphoxide, read-out: Solubility
  Solubility: > 100 mg/mL
[1]; ethyl acetate, organic solvent or mixture, thermodynamic from solid, Ethyl acetate, read-out: Solubility
  Solubility: < 1 mg/mL
[1]; isopropyl alcohol (2-propanol), organic solvent or mixture, thermodynamic from solid, Isopropyl alcohol (2-propanol), read-out: Solubility
  Solubility: 10 to 25 mg/mL (≈ 25300 to 63400 µM)
[1]; n-hexane, organic solvent or mixture, thermodynamic from solid, n-hexane, read-out: Solubility
  Solubility: < 1 mg/mL
[1]; toluene, organic solvent or mixture, thermodynamic from solid, Toluene, read-out: Solubility
  Solubility: < 1 mg/mL
[2]; Water, overnight, ambient room temperature, listed as Esylate salt
  Solubility: >539.39 mg/mL
[2]; pH 1.2 HCl, listed as Esylate salt
  Solubility: >587.07 mg/mL
[2]; pH 3.0 Citrate buffer, listed as Esylate salt
  Solubility: >76.38 mg/mL
[2]; pH 4.0 Acetate buffer, listed as Esylate salt
  Solubility: 53.25 mg/mL
[2]; pH 5.0 Acetate buffer, listed as Esylate salt
  Solubility: 0.84 mg/mL
[2]; pH 6.8 Phosphate buffer, listed as Esylate salt
  Solubility: 79.08 mg/mL
[2]; pH 7.4 Phosphate buffer, listed as Esylate salt
  Solubility: 40.8 mg/mL
[3]
  hygroscopicity: non-hygroscopic
[4]; male Balb/c mice
  Bioavailability (% F): 62 % F
[4]; [10]
  AUC(0-inf): 23700 ± 9250 ng·h/mL
  half-life: 3.4 ± 1.2 h
[4]; male, Balb/c, mouse, plasma, po, 50 mg/kg, PO dose (50 mg/kg), single dose, male Balb/c mice, read-out: Cmax
  Cmax: 8190 ± 891 ng/mL
[4]; mouse, plasma, PO dose (50 mg/kg), single dose, male Balb/c mice, read-out: Tmax
  Tmax: 0.3 ± 0.2 h
[5]; mouse, mouse liver microsomes, read-out: Invitro T1/2, MLM
  half-life at 3 μM: 0.4 h
[6]; 3 μM (n = 3), read-out: Invitro T1/2, PHLM
  half-life at 3 μM: > 1 h
[6]
  stability in PHLM: ✓ FT1518, FT 1518-Esylate and FT1518-Oxalate was highly stable in PHLM and RLM
[7]; 3 μM (n = 3), read-out: Invitro T1/2, RLM
  half-life at 3 μM: > 1 h
[7]
  stability in RLM: ✓ FT1518, FT 1518-Esylate and FT1518-Oxalate was highly stable in PHLM and RLM
Mouse plasma
  plasma protein binding, mouse plasma: ✓ FT1518, FT1518-Esylate and FT1518-Oxalate showed moderate plasma protein binding in both mouse and human plasma
[8]; Homo sapiens
  IC50: > 10 µM
[9]
  IC50: > 10 µM

## CCC(CC)n1cnc2c(-c3cnc(N)cn3)nc(N3CC4CCC(C3)O4)nc21 [FT-1518-Oxalate]
[1]; Dimethyl sulphoxide
  Solubility: >100 mg/mL
[1]; N-methyl pyrrolidone
  Solubility: >100 mg/mL
[1]; dichloromethane
  Solubility: <1 mg/mL
[1]; ethyl acetate
  Solubility: <1 mg/mL
[1]; n-hexane
  Solubility: <1 mg/mL
[1]; toluene
  Solubility: <1 mg/mL
[2]; Water, overnight, ambient room temperature, listed as Oxalate salt
  Solubility: 11.03 mg/mL
[2]; pH 1.2 HCl, listed as Oxalate salt
  Solubility: >52.76 mg/mL
[2]; pH 3.0 Citrate buffer, listed as Oxalate salt
  Solubility: 20.25 mg/mL
[2]; pH 4.0 Acetate buffer, listed as Oxalate salt
  Solubility: 1.05 mg/mL
[2]; pH 5.0 Acetate buffer, listed as Oxalate salt
  Solubility: 0.14 mg/mL
[2]; pH 6.8 Phosphate buffer, listed as Oxalate salt
  Solubility: 5.28 mg/mL
[2]; pH 7.4 Phosphate buffer, listed as Oxalate salt
  Solubility: 0.76 mg/mL
[3]
  hygroscopicity: non-hygroscopic
[4]; PO 50 mg/kg, Balb/c male mice
  bioavailability in comparison to esylate salt and base: FT-1518-oxalate salt showed high bioavailability in comparison to esylate salt and base.
[4]; male Balb/c mice
  Bioavailability (% F): 76 % F
[4]; [11]
  AUC0-∞: 28876 ± 7762 ng·h/mL
  Cmax: 8444 ± 1473 ng/mL
  T1/2: 3.5 ± 1.9 h
  Tmax: 0.3 ± 0.2 h
[5]
  Invitro T1/2, MLM: 0.767 h
[6]; 3 μM (n = 3)
  Invitro T1/2, PHLM: >1 h
[6]
  stability in PHLM: ✓ FT1518, FT 1518-Esylate and FT1518-Oxalate was highly stable in PHLM and RLM
[7]; 3 μM (n = 3)
  Invitro T1/2, RLM: >1 h
[7]
  stability in RLM: ✓ FT1518, FT 1518-Esylate and FT1518-Oxalate was highly stable in PHLM and RLM
Mouse plasma
  plasma protein binding, mouse plasma: ✓ FT1518, FT1518-Esylate and FT1518-Oxalate showed moderate plasma protein binding in both mouse and human plasma
Mouse plasma; 10 μM (n = 4)
  % Bound, Mouse plasma: 91.79%
[8]
  IC50: > 10 µM
[9]
  IC50: > 10 µM
